Each compound was assayed against ALK2 (Homo sapiens (Human), UniProt Q04771) (assay: ALK2 inhibition, LanthaScreen Eu Kinase Binding Assay (ThermoFisher Scientific / Life Technologies)). Settings: read-out: Measured Ki (IC50) Value for Compounds: IC50.
Procedure: Biochemical assays to measure the inhibitory effects of the compounds were performed by ThermoFisher Scientific (Life Technologies). ALK2 inhibition was tested using LanthaScreen™ Eu Kinase Binding Assay screening protocol.

Chain of ALK2 (Q04771 21-509): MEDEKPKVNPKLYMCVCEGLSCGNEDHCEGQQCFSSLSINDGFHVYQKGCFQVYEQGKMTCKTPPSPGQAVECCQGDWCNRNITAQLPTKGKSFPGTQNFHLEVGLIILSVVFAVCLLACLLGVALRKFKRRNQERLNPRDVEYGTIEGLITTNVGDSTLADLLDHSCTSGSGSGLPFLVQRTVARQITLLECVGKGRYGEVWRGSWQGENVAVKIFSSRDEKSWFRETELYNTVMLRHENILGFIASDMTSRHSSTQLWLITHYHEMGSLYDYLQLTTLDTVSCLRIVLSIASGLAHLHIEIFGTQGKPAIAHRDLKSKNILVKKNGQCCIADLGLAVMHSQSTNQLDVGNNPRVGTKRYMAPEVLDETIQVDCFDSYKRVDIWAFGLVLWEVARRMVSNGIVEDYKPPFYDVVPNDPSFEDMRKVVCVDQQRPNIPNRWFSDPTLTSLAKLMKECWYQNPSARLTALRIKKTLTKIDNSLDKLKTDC

Compound | IC50
COc1cc(-n2cnc(Nc3nc(N4CCC[C@H]4CO)c4ccncc4n3)c2)cc(OC)c1OC [Compound 381b, (S)-(1-(2-((1-(3,4,5-trimethoxyphenyl)-1H-imidazol-4-yl)amino)pyrido[3,4-d]pyrimidin-4-yl)pyrrolidin-2-yl)methanol] | < 100 nM
COc1cc(-n2cnc(Nc3nc(N4CCC[C@H]4CO)nc4sc(CN5CCCC5)cc34)c2)cc(OC)c1OC [Compound 384b, (S)-(1-(6-(pyrrolidin-1-ylmethyl)-4-((1-(3,4,5-trimethoxyphenyl)-1H-imidazol-4-yl)amino)thieno[2,3-d]pyrimidin-2-yl)pyrrolidin-2-yl)methanol] | < 100 nM
COc1cc(-n2cnc(Nc3nc(N4CCC[C@H]4CO)c4ccc(C5=CCNCC5)cc4n3)c2)cc(OC)c1OC [Compound 385c, (S)-(1-(7-(1,2,3,6-tetrahydropyridin-4-yl)-2-((1-(3,4,5-trimethoxyphenyl)-1H-imidazol-4-yl)amino)quinazolin-4-yl)pyrrolidin-2-yl)methanol] | < 100 nM
COc1cc(-n2cnc(Nc3nc(N4CCC[C@H]4CO)nc4c3ncn4C)c2)cc(OC)c1OC [Compound 386c, (S)-(1-(9-methyl-6-((1-(3,4,5-trimethoxyphenyl)-1H-imidazol-4-yl)amino)-9H-purin-2-yl)pyrrolidin-2-yl)methanol] | < 100 nM
COc1cc(-n2cnc(Nc3nc(N4CCC[C@H]4CO)c4ncn(C)c4n3)c2)cc(OC)c1OC [Compound 388b, (S)-(1-(9-methyl-2-((1-(3,4,5-trimethoxyphenyl)-1H-imidazol-4-yl)amino)-9H-purin-6-yl)pyrrolidin-2-yl)methanol] | < 100 nM
COc1cc(-n2cnc(Nc3nc(N4CCC[C@H]4CO)nc4cc(C)ccc34)c2)cc(OC)c1OC [Compound 391c, (S)-(1-(7-methyl-4-((1-(3,4,5-trimethoxyphenyl)-1H-imidazol-4-yl)amino)quinazolin-2-yl)pyrrolidin-2-yl)methanol] | < 100 nM
COc1cc(-n2cnc(Nc3nc(N4CCC[C@H]4C(N)=O)nc4[nH]cc(C#N)c34)c2)cc(OC)c1OC [Compound 395d, (S)-1-(5-cyano-4-((1-(3,4,5-trimethoxyphenyl)-1H-imidazol-4-yl)amino)-7H-pyrrolo[2,3-d]pyrimidin-2-yl)pyrrolidine-2-carboxamide] | > 1000 nM
COc1cc(-n2cnc(Nc3nc(N4[C@H](CO)C[C@H]5C[C@H]54)nc4c3CCC4)c2)cc(OC)c1OC [Compound 396a, ((1R,3S,5R)-2-(4-((1-(3,4,5-trimethoxyphenyl)-1H-imidazol-4-yl)amino)-6,7-dihydro-5H-cyclopenta[d]pyrimidin-2-yl)-2-azabicyclo[3.1.0]hexan-3-yl)methanol] | < 100 nM
COc1cc(-n2cnc(Nc3nc(N4CCC[C@H]4CO)nc4[nH]cc(C#N)c34)c2)cc(OC)c1OC [Compound 397a, (S)-2-(2-(hydroxymethyl)pyrrolidin-1-yl)-4-((1-(3,4,5-trimethoxyphenyl)-1H-imidazol-4-yl)amino)-7H-pyrrolo[2,3-d]pyrimidine-5-carbonitrile] | 100 to 1000 nM
COc1cc(-n2cnc(Nc3nc4c(c(N5CCC[C@H]5CO)n3)CCCCC4)c2)cc(OC)c1OC [Compound 398c, (S)-(1-(2-((1-(3,4,5-trimethoxyphenyl)-1H-imidazol-4-yl)amino)-6,7,8,9-tetrahydro-5H-cyclohepta[d]pyrimidin-4-yl)pyrrolidin-2-yl)methanol] | < 100 nM
COc1cc(-n2cnc(Nc3nc(N4CCC[C@H]4CO)nc4c3c(C)nn4C3CCCCO3)c2)cc(OC)c1OC (stereo partly drawn) [Compound 400c, ((2S)-1-(3-methyl-1-(tetrahydro-2H-pyran-2-yl)-4-((1-(3,4,5-trimethoxyphenyl)-1H-imidazol-4-yl)amino)-1H-pyrazolo[3,4-d]pyrimidin-6-yl)pyrrolidin-2-yl)methanol] | 100 to 1000 nM
COc1cc(-n2cnc(Nc3nc(N4CCC[C@H]4C(N)=O)nc4[nH]nc(C)c34)c2)cc(OC)c1OC [Compound 401b, (S)-1-(3-methyl-4-((1-(3,4,5-trimethoxyphenyl)-1H-imidazol-4-yl)amino)-1H-pyrazolo[3,4-d]pyrimidin-6-yl)pyrrolidine-2-carboxamide] | > 1000 nM
COc1cc(-n2cnc(Nc3nc(N4CCC[C@H]4CO)c4c(C)nn(C5CCCCO5)c4n3)c2)cc(OC)c1OC (stereo partly drawn) [Compound 402b, ((2S)-1-(3-methyl-1-(tetrahydro-2H-pyran-2-yl)-6-((1-(3,4,5-trimethoxyphenyl)-1H-imidazol-4-yl)amino)-1H-pyrazolo[3,4-d]pyrimidin-4-yl)pyrrolidin-2-yl)methanol] | < 100 nM
COc1cc(-n2cnc(Nc3nc(N4CCC[C@H]4CO)c4c(C)n[nH]c4n3)c2)cc(OC)c1OC [Compound 402c, (S)-(1-(3-methyl-6-((1-(3,4,5-trimethoxyphenyl)-1H-imidazol-4-yl)amino)-1H-pyrazolo[3,4-d]pyrimidin-4-yl)pyrrolidin-2-yl)methanol] | < 100 nM
COc1cc(-n2cnc(Nc3nc(N4CCC[C@H]4C(N)=O)nc4sc(CN5CCC(O)CC5)cc34)c2)cc(OC)c1OC [Compound 404b, (S)-1-(6-((4-hydroxypiperidin-1-yl)methyl)-4-((1-(3,4,5-trimethoxyphenyl)-1H-imidazol-4-yl)amino)thieno[2,3-d]pyrimidin-2-yl)pyrrolidine-2-carboxamide] | < 100 nM

Now from value to compound:

IC50 | Compound
< 100 nM | COc1cc(-n2cnc(Nc3nc(N4CCC[C@@H]4CO)nc4cc(Br)ccc34)c2)cc(OC)c1OC [Compound 382a, (R)-(1-(7-bromo-4-((1-(3,4,5-trimethoxyphenyl)-1H-imidazol-4-yl)amino)quinazolin-2-yl)pyrrolidin-2-yl)methanol]
< 100 nM | COc1cc(-n2cnc(Nc3nc(N4CCC[C@@H]4CO)nc4cc(N5CCN(C)CC5)ccc34)c2)cc(OC)c1OC [Compound 383a, (R)-(1-(7-(4-methylpiperazin-1-yl)-4-((1-(3,4,5-trimethoxyphenyl)-1H-imidazol-4-yl)amino)quinazolin-2-yl)pyrrolidin-2-yl)methanol]
< 100 nM | COc1cc(-n2cnc(Nc3nc(N4CCC[C@H]4C(N)=O)nc4c3ncn4C)c2)cc(OC)c1OC [Compound 387a, (S)-1-(9-methyl-6-((1-(3,4,5-trimethoxyphenyl)-1H-imidazol-4-yl)amino)-9H-purin-2-yl)pyrrolidine-2-carboxamide]
< 100 nM | COc1cc(-n2cnc(Nc3nc(N4CCC[C@H]4CO)c4c(ncn4C)n3)c2)cc(OC)c1OC [Compound 389c, (S)-(1-(7-methyl-2-((1-(3,4,5-trimethoxyphenyl)-1H-imidazol-4-yl)amino)-7H-purin-6-yl)pyrrolidin-2-yl)methanol]
> 1000 nM | COc1cc(-n2cnc(Nc3nc(N4CCC[C@H]4C(N)=O)nc4ncn(C)c34)c2)cc(OC)c1OC [Compound 390b, (S)-1-(7-methyl-6-((1-(3,4,5-trimethoxyphenyl)-1H-imidazol-4-yl)amino)-7H-purin-2-yl)pyrrolidine-2-carboxamide]
< 100 nM | COc1cc(-n2cnc(Nc3nc(N4CCC[C@H]4C(N)=O)nc4cc(C)ccc34)c2)cc(OC)c1OC [Compound 392a, (S)-1-(7-methyl-4-((1-(3,4,5-trimethoxyphenyl)-1H-imidazol-4-yl)amino)quinazolin-2-yl)pyrrolidine-2-carboxamide]
100 to 1000 nM | COc1cc(-n2cnc(Nc3nc(N4CCC[C@H]4CO)c4ccc(C)cc4n3)c2)cc(OC)c1OC [Compound 393b, (S)-(1-(7-methyl-2-((1-(3,4,5-trimethoxyphenyl)-1H-imidazol-4-yl)amino)quinazolin-4-yl)pyrrolidin-2-yl)methanol]
< 100 nM | COc1cc(-n2cnc(Nc3nc4c(c(N5[C@H](CO)C[C@H]6C[C@H]65)n3)CCC4)c2)cc(OC)c1OC [Compound 394b, ((1R,3S,5R)-2-(2-((1-(3,4,5-trimethoxyphenyl)-1H-imidazol-4-yl)amino)-6,7-dihydro-5H-cyclopenta[d]pyrimidin-4-yl)-2-azabicyclo[3.1.0]hexan-3-yl)methanol]
< 100 nM | COc1cc(-n2cnc(Nc3nc(N4CCC[C@H]4CO)nc4cc(CN5CCCC5)ccc34)c2)cc(OC)c1OC [Compound 399f, (S)-(1-(7-(pyrrolidin-1-ylmethyl)-4-((1-(3,4,5-trimethoxyphenyl)-1H-imidazol-4-yl)amino)quinazolin-2-yl)pyrrolidin-2-yl)methanol]
100 to 1000 nM | COc1cc(-n2cnc(Nc3nc(N4CCC[C@H]4CO)nc4[nH]nc(C)c34)c2)cc(OC)c1OC [Compound 400d, (S)-(1-(3-methyl-4-((1-(3,4,5-trimethoxyphenyl)-1H-imidazol-4-yl)amino)-1H-pyrazolo[3,4-d]pyrimidin-6-yl)pyrrolidin-2-yl)methanol]
> 1000 nM | COc1cc(-n2cnc(Nc3nc(N4CCC[C@H]4C(N)=O)nc4c3c(C)nn4C3CCCCO3)c2)cc(OC)c1OC (stereo partly drawn) [Compound 401a, (2S)-1-(3-methyl-1-(tetrahydro-2H-pyran-2-yl)-4-((1-(3,4,5-trimethoxyphenyl)-1H-imidazol-4-yl)amino)-1H-pyrazolo[3,4-d]pyrimidin-6-yl)pyrrolidine-2-carboxamide]
< 100 nM | COc1cc(-n2cnc(Nc3nc(N4CCC[C@H]4C(N)=O)nc4sc(CN5CCCC5)cc34)c2)cc(OC)c1OC [Compound 403h, (S)-1-(6-(pyrrolidin-1-ylmethyl)-4-((1-(3,4,5-trimethoxyphenyl)-1H-imidazol-4-yl)amino)thieno[2,3-d]pyrimidin-2-yl)pyrrolidine-2-carboxamide]
< 100 nM | COc1cc(-n2cnc(Nc3nc(N4CCC[C@H]4C(N)=O)nc4sc(CN5CCN(C)CC5)cc34)c2)cc(OC)c1OC [Compound 405b, (S)-1-(6-((4-methylpiperazin-1-yl)methyl)-4-((1-(3,4,5-trimethoxyphenyl)-1H-imidazol-4-yl)amino)thieno[2,3-d]pyrimidin-2-yl)pyrrolidine-2-carboxamide]
< 100 nM | COc1cc(-n2cnc(Nc3nc(N4CCC[C@H]4C(N)=O)nc4sc(CN5CCCCC5)cc34)c2)cc(OC)c1OC [Compound 406b, (S)-1-(6-(piperidin-1-ylmethyl)-4-((1-(3,4,5-trimethoxyphenyl)-1H-imidazol-4-yl)amino)thieno[2,3-d]pyrimidin-2-yl)pyrrolidine-2-carboxamide]
